From ChEMBL document CHEMBL1201862, “PubChem BioAssay data set” (2004)
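Assay format: 96-well plates, 48-hour exposure. Abbreviation: GI50, concentration required for 50% inhibition of growth.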 The source made the active and inactive calls. Cut-off read from the data, not from the text of the source: active = GI50 up to about 1.1 µM and inactive = higher.

What was measured:
Experiment in all cases: inhibition of tumour cell growth, NCI panel, 48 h
U-251 = test system: U-251
TK-10 = test system: TK-10
Malme-3M = test system: Malme-3M
SF-268 = test system: SF-268
LXFL 529 = test system: LXFL 529
HT-29 = test system: HT-29
HOP-62 = test system: HOP-62
DMS-114 = test system: DMS-114
A549 = test system: A549
SF-539 = test system: SF-539
SW-620 = test system: SW-620
NCI-H226 = test system: NCI-H226
A498 = test system: A498
RXF 631 = test system: RXF 631
RPMI-8226 = test system: RPMI-8226
K562 = test system: K562
RXF 393 = test system: RXF 393
HOP-92 = test system: HOP-92
KM-20L2 = test system: KM-20L2
HCC 2998 = test system: HCC 2998
786-0 = test system: 786-0
OVCAR-5 = test system: OVCAR-5
HL-60 = test system: HL-60
UO-31 = test system: UO-31
COLO 205 = test system: COLO 205
HOP-18 = test system: HOP-18
CCRF-CEM = test system: CCRF-CEM
UACC-257 = test system: UACC-257
M14 = test system: M14
IGROV-1 = test system: IGROV-1
SK-OV-3 = test system: SK-OV-3
NCI-H522 = test system: NCI-H522
XF498 = test system: XF498
HCT-15 = test system: HCT-15
DMS-273 = test system: DMS-273
SNB-19 = test system: SNB-19
ACHN = test system: ACHN
SK-MEL-28 = test system: SK-MEL-28
SNB-75 = test system: SNB-75
NCI-H23 = test system: NCI-H23
SF-295 = test system: SF-295
KM12 = test system: KM12
M19-MEL = test system: M19-MEL
UACC-62 = test system: UACC-62
SK-MEL-2 = test system: SK-MEL-2
OVCAR-4 = test system: OVCAR-4
MOLT-4 = test system: MOLT-4
DLD-1 = test system: DLD-1
EKVX = test system: EKVX
NCI-H460 = test system: NCI-H460
OVCAR-3 = test system: OVCAR-3
OVCAR-8 = test system: OVCAR-8
SK-MEL-5 = test system: SK-MEL-5
SN12C = test system: SN12C
CAKI-1 = test system: CAKI-1
SNB-78 = test system: SNB-78
SR = test system: SR
HCT-116 = test system: HCT-116

Compound: c1ccc(COc2cccc3ccc[n+](Cc4ccccc4)c23)cc1
- GI50 (U-251): 4.01 µM (inactive)
- GI50 (TK-10): 12.1 µM (inactive)
- GI50 (Malme-3M): 4.23 µM (inactive)
- GI50 (SF-268): 4.06 µM (inactive)
- GI50 (LXFL 529): 3.62 µM (inactive)
- GI50 (HT-29): 5.01 µM (inactive)
- GI50 (HOP-62): 12 µM (inactive)
- GI50 (DMS-114): 2.99 µM (inactive)
- GI50 (A549): 7.46 µM (inactive)
- GI50 (SF-539): 7.82 µM (inactive)
- GI50 (SW-620): 9.75 µM (inactive)
- GI50 (NCI-H226): 3.31 µM (inactive)
- GI50 (A498): 16.6 µM (inactive)
- GI50 (RXF 631): 18.9 µM (inactive)
- GI50 (RPMI-8226): 2.77 µM (inactive)
- GI50 (K562): 2.38 µM (inactive)
- GI50 (RXF 393): 8.75 µM (inactive)
- GI50 (HOP-92): 3.41 µM (inactive)
- GI50 (KM-20L2): 4.12 µM (inactive)
- GI50 (HCC 2998): 13.1 µM (inactive)
- GI50 (786-0): 13.4 µM (inactive)
- GI50 (OVCAR-5): 1.92 µM (inactive)
- GI50 (HL-60): 1.93 µM (inactive)
- GI50 (UO-31): 25.8 µM (inactive)
- GI50 (COLO 205): 6.44 µM (inactive)
- GI50 (HOP-18): 2.07 µM (inactive)
- GI50 (CCRF-CEM): 6.04 µM (inactive)
- GI50 (UACC-257): 2.61 µM (inactive)
- GI50 (M14): 9.38 µM (inactive)
- GI50 (IGROV-1): 3.03 µM (inactive)
- GI50 (SK-OV-3): 23.8 µM (inactive)
- GI50 (NCI-H522): 1.95 µM (inactive)
- GI50 (XF498): 11.2 µM (inactive)
- GI50 (HCT-15): 27.5 µM
- GI50 (DMS-273): 3.8 µM (inactive)
- GI50 (SNB-19): 3.52 µM (inactive)
- GI50 (ACHN): 8.2 µM (inactive)
- GI50 (SK-MEL-28): 3.85 µM (inactive)
- GI50 (SNB-75): 5.2 µM (inactive)
- GI50 (NCI-H23): 2.84 µM (inactive)
- GI50 (SF-295): 4.26 µM (inactive)
- GI50 (KM12): 3.41 µM (inactive)
- GI50 (M19-MEL): 3.59 µM (inactive)
- GI50 (UACC-62): 4.6 µM (inactive)
- GI50 (SK-MEL-2): 5.21 µM (inactive)
- GI50 (OVCAR-4): 3.6 µM (inactive)
- GI50 (MOLT-4): 5.35 µM (inactive)
- GI50 (DLD-1): 11.5 µM (inactive)
- GI50 (EKVX): 6.43 µM (inactive)
- GI50 (NCI-H460): 8.93 µM (inactive)

Compound: NC(=S)N/N=C1/C(=O)N(c2ccccc2)C(=O)C1C(=O)Nc1ccccc1 (centres undefined)
- GI50 (U-251): > 100 µM (inactive)
- GI50 (TK-10): > 100 µM (inactive)
- GI50 (OVCAR-3): > 100 µM (inactive)
- GI50 (Malme-3M): > 100 µM (inactive)
- GI50 (SF-268): > 100 µM (inactive)
- GI50 (LXFL 529): > 100 µM (inactive)
- GI50 (HT-29): > 100 µM (inactive)
- GI50 (HOP-62): > 100 µM (inactive)
- GI50 (DMS-114): > 100 µM (inactive)
- GI50 (A549): > 100 µM (inactive)
- GI50 (SF-539): > 100 µM (inactive)
- GI50 (SW-620): > 100 µM (inactive)
- GI50 (OVCAR-8): > 100 µM (inactive)
- GI50 (NCI-H226): > 100 µM (inactive)
- GI50 (A498): > 100 µM (inactive)
- GI50 (RXF 631): > 100 µM (inactive)
- GI50 (SK-MEL-5): > 100 µM (inactive)
- GI50 (RXF 393): > 100 µM (inactive)
- GI50 (HOP-92): > 100 µM (inactive)
- GI50 (KM-20L2): > 100 µM (inactive)
- GI50 (HCC 2998): > 100 µM (inactive)
- GI50 (786-0): > 100 µM (inactive)
- GI50 (SN12C): > 100 µM (inactive)
- GI50 (OVCAR-5): > 100 µM (inactive)
- GI50 (HL-60): > 100 µM (inactive)
- GI50 (UO-31): > 100 µM (inactive)
- GI50 (COLO 205): > 100 µM (inactive)
- GI50 (HOP-18): > 100 µM (inactive)
- GI50 (UACC-257): > 100 µM (inactive)
- GI50 (M14): > 100 µM (inactive)
- GI50 (CAKI-1): > 100 µM (inactive)
- GI50 (IGROV-1): > 100 µM (inactive)
- GI50 (SK-OV-3): > 100 µM (inactive)
- GI50 (SNB-78): > 100 µM (inactive)
- GI50 (NCI-H522): > 100 µM (inactive)
- GI50 (XF498): > 100 µM (inactive)
- GI50 (HCT-15): > 100 µM
- GI50 (DMS-273): > 100 µM (inactive)
- GI50 (SNB-19): > 100 µM (inactive)
- GI50 (ACHN): > 100 µM (inactive)
- GI50 (SK-MEL-28): > 100 µM (inactive)
- GI50 (SNB-75): > 100 µM (inactive)
- GI50 (NCI-H23): > 100 µM (inactive)
- GI50 (SF-295): > 100 µM (inactive)
- GI50 (KM12): > 100 µM (inactive)
- GI50 (SR): > 100 µM (inactive)
- GI50 (M19-MEL): > 100 µM (inactive)
- GI50 (UACC-62): > 100 µM (inactive)
- GI50 (SK-MEL-2): > 100 µM (inactive)
- GI50 (OVCAR-4): > 100 µM (inactive)
- GI50 (MOLT-4): > 100 µM (inactive)
- GI50 (HCT-116): > 100 µM (inactive)
- GI50 (EKVX): > 100 µM (inactive)
- GI50 (NCI-H460): > 100 µM (inactive)
